Data reported in paper PMC7684578, “Isopedopeptins A–H: Cationic Cyclic Lipodepsipeptides from Pedobacter cryoconitis UP508 Targeting WHO Top-Priority Carbapenem-Resistant Bacteria” (ACS Chemical Biology, 2020).
≈ marks a conversion by molar mass, not a printed value. Starred links: 1 amine or outer side, 2 acyl side, 3 side chain; linkers in the order of their positions; H or OH if unused. Positions of bridges follow the written chain, without caps; N, C: chain ends. Non-standard residues stand in square brackets, D forms with d. Residues, ends and D or L forms follow the SMILES beside them. X4 = CC(C)CCC=CCCC[C@H](CC(=O)[*:1])O[*:2]; X6 = CC(C)CCCCC=CC[C@H](CC(=O)[*:1])O[*:2]; X5 = CC(C)CCCCCCC[C@H](CC(=O)[*:1])O[*:2]; X3 = CC(C)CCCCC[C@H](CC(=O)[*:1])O[*:2]; X7 = CCCCCCC=CC[C@H](CC(=O)[*:1])O[*:2]; X2 = CCCCCCC[C@H](CC(=O)[*:1])O[*:2]; Val(3-OH) = CC(C)(O)[C@H](N)C(=O)O; X1 = C/C=C(/N[*:1])C(=O)[*:2]; Dab = NCC[C@H](N)C(=O)O; Dap = NC[C@H](N)C(=O)O

Legend:
Test in all cases: MIC, broth micro-dilution, primary panel
Type in all cases: cell-based
E. cloacae LMG2783T = conditions: Enterobacter cloacae, WT
Description: (§1) Isopedopeptin E (5): off-white solid; [α] D20 –36° (c 0.3 in methanol); UV (MeOH) λ max (log10 ε) 240 (3.8); 1H NMR (DMSO-d 6, 600 MHz), see Table S5; 13C NMR (DMSO-d 6, 150 MHz), see Table […]
(§2) Isopedopeptin F (6): off-white solid; [α] D20 –32° (c 0.05 in methanol); UV (MeOH) λ max (log10 ε) 240 (3.8); 1H NMR (DMSO-d 6, 600 MHz), see Table S6; 13C NMR (DMSO-d 6, 150 MHz), see Table […]
(§3) Isopedopeptin G (7): off-white solid; [α] D20 –49° (c 0.1 in methanol); UV (MeOH) λ max (log10 ε) 240 (4.0); 1H NMR (DMSO-d 6, 600 MHz), see Table S7; 13C NMR (DMSO-d 6, 150 MHz), see Table […]
(§4) Isopedopeptin H (8): off-white solid; [α] D20 –56° (c 0.2 in methanol); UV (MeOH) λ max (log10 ε) 240 (4.0); 1H NMR (DMSO-d 6, 600 MHz), see Table S8; 13C NMR (DMSO-d 6, 150 MHz), see Table […]
(§5) Minimal Inhibitory Concentration (MIC) against the primary panel of microorganisms.
(§6) The MIC for compounds 1–8 was measured by means of a broth micro-dilution method in 96-wells microtiter plates with the addition of E. coli LMG15862, LMG1041 T, E. cloacaeA. baumannii […]
(§7) H-29 and A. fumigatus J7, as test organisms. The test media were AM3 Broth (BD Difco Ltd) mixed with phosphate buffered saline (PBS, Amresco LLC, Solon, USA) in 1:4 ratio (E. coli, A. baumannii, E. cloacae, K. pneumoniae and P. aeruginosa), AM3 Broth mixed with PBS in 1:1 ratio (S. aureus), ME (A. fumigatus) and ISP2 (C. albicans). Prior to MIC determination, the cell concentration of tested bacterial/fungal pathogens was adjusted to ≅ 4 × 10^5 CFU/mL (acceptable range 2 – 6 × 10^5 CFU/mL). Cell concentration was confirmed by colony counting after diluting and plating the respective bacterial pathogen on VPA plates [VPA, 10 g Vegetable Peptone Broth (Oxoid Ltd., Basingstoke,UK), 15 g Bacto Agar (Difco Ltd, Tyrone) in 1 L deionised water] directly after each of MIC-tests. The cells of C. albicans were plated on ISP2 agar plates [ISP2, 15 g Bacto Agar (Difco Ltd) in 1 L deionised water] and respectively spores of A. fumigatus were plated on MEA plates.
(§8) Plates were, subsequently, incubated at 37 °C in the dark, and viable colonies counted after 16 to 24 h.
(§9) To estimate MIC values (concentration range between 0.05 and 50 µg/mL), solutions of the tested compounds (100, 10 and 1 and if needed 0.1 µg/mL in MeOH) were dispensed into wells of microtiter plate(s) and the solvent was evaporated in a fume-hood. Subsequently, suspensions of pathogen cells in the appropriate medium were dispensed to the wells of microtiter plates and the growth of pathogens were observed after 16 to 20 h of incubation at 37 °C in the dark. Positive controls were the respective pathogen cells suspended in untreated sterile media without addition of compounds(s) and negative controls were the media only. MIC values were defined as the lowest concentration of each compound with no visible growth of pathogen. All MIC tests were performed in triplicate and […]
(§10) MIC determination for compound 2 against an extended panel of bacterial strains.
(§11) Compound 2 was evaluated against a panel of Gram-negative bacteria (Hughes strain collection), including: A. baumannii ATCC 19606, wild-type; BM4454, multidrug-resistant clinical isolate; BM4652, efflux-defective derivative of BM4454; CH9622, colistin-resistant clinical isolate; E. coli ATCC 25922, wild-type; CH3130, efflux-defective ΔtolC mutant isogenic to ATCC 25922; D22, a drug-hypersensitive lpxC mutant of E. coli; CH3491, multidrug-resistant clinical isolate; CH9623 and CH9624, colistin-resistant clinical isolates carrying mcr-1; K. pneumoniae ATCC 13833, wild-type; […]
(§12) clinical isolate; CH9625 and CH9626, colistin-resistant clinical isolates; P. aeruginosa PAO1, wild-type; PAO750, efflux-defective mutant isogenic to PAO1. The in vitro antimicrobial activity of each compound was determined by measuring the MIC value using the broth micro-dilution technique in cation-adjusted Mueller-Hinton II broth (Becton-Dickinson, 212322) according to EUCAST and CLSI guidelines. Each compound prepared in MHII medium was dispensed into a 96-well round- […]

A. baumannii LMG1041T = conditions: Acinetobacter baumannii, WT
Description: as §1, §2, §3, §4, §5, §6, §7, §8, §9, §10, §11, §12

B. cereus CCUG7414T = conditions: Bacillus cereus
Description: as §1, §2, §3, §4, §5, §6, §7, §8, §9, §10, §11, §12

E. coli LMG15862 = conditions: Escherichia coli, β-lactam.
Description: as §1, §2, §3, §4, §5, §6, §7, §8, §9, §10, §11, §12

A. fumigatus J7 = conditions: Aspergillus fumigatus
Description: as §1, §2, §3, §4, §5, §6, §7, §8, §9, §10, §11, §12

S. aureus LMG15975 = conditions: Staphylococcus aureus, LMG15975 / MRSA
Description: as §1, §2, §3, §4, §5, §6, §7, §8, §9, §10, §11, §12

C. albicans H-29 = conditions: Candida albicans, H29; WT
Description: as §1, §2, §3, §4, §5, §6, §7, §8, §9, §10, §11, §12

SMILES | MIC (E. cloacae LMG2783T) [µg/mL] | MIC (A. baumannii LMG1041T) [µg/mL] | MIC (B. cereus CCUG7414T) [µg/mL] | MIC (E. coli LMG15862) [µg/mL] | MIC (A. fumigatus J7) [µg/mL] | MIC (S. aureus LMG15975) [µg/mL] | MIC (C. albicans H-29) [µg/mL]
C/C=C1/NC(=O)[C@H](CCN)NC(=O)[C@H](CC(C)C)NC(=O)[C@H](CN)NC(=O)C[C@@H](CCCCCC(C)C)OC(=O)[C@H](CC(=O)O)NC(=O)[C@H](C(C)(C)O)NC(=O)[C@@H](Cc2ccccc2)NC(=O)[C@H](CN)NC(=O)[C@H]([C@@H](C)O)NC1=O [Compound 1, cyclo(3-hydroxy-9-methyldecanoyl-DAPA1-Leu-DABA-ABA-Thr-DAPA2-Phe-OHVal-Asp)] ([Dap]L[Dab][X1]T[Dap][dF][Val(3-OH)]D; linker N-C via X3) | 16 (≈ 14.1 µM) | 4 (≈ 3.54 µM) | > 32 | 4 (≈ 3.54 µM) | > 32 | > 32 | 32 (≈ 28.3 µM)
C/C=C1/NC(=O)[C@H](CCN)NC(=O)[C@H](CC(C)C)NC(=O)[C@H](CN)NC(=O)C[C@@H](CCCCCCC)OC(=O)[C@H](CC(=O)O)NC(=O)[C@H](C(C)(C)O)NC(=O)[C@@H](Cc2ccccc2)NC(=O)[C@H](CN)NC(=O)[C@H]([C@@H](C)O)NC1=O [Compound 2, isopedopeptin B] ([Dap]L[Dab][X1]T[Dap][dF][Val(3-OH)]D; linker N-C via X2) | 32 (≈ 28.6 µM) | 8 (≈ 7.16 µM) | > 32 | 8 (≈ 7.16 µM) | > 32 | 32 (≈ 28.6 µM) | 32 (≈ 28.6 µM)
C/C=C1/NC(=O)[C@H](CCN)NC(=O)[C@H](CC(C)C)NC(=O)[C@H](CN)NC(=O)C[C@@H](CC=CCCCCCC)OC(=O)[C@H](CC(=O)O)NC(=O)[C@H](C(C)(C)O)NC(=O)[C@@H](Cc2ccccc2)NC(=O)[C@H](CN)NC(=O)[C@H]([C@@H](C)O)NC1=O [Compound 3, isopedopeptin C] ([Dap]L[Dab][X1]T[Dap][dF][Val(3-OH)]D; linker N-C via X7) | 32 (≈ 28 µM) | 16 (≈ 14 µM) | 32 (≈ 28 µM) | 16 (≈ 14 µM) | > 32 | > 32 | 32 (≈ 28 µM)
C/C=C1/NC(=O)[C@H](CCN)NC(=O)[C@H](CC(C)C)NC(=O)[C@H](CN)NC(=O)C[C@@H](CCCCCCC)OC(=O)[C@H](CC(=O)O)NC(=O)[C@H](C(C)C)NC(=O)[C@@H](Cc2ccccc2)NC(=O)[C@H](CN)NC(=O)[C@H]([C@@H](C)O)NC1=O [Compound 4, isopedopeptin D] ([Dap]L[Dab][X1]T[Dap][dF]VD; linker N-C via X2) | 32 (≈ 29.1 µM) | 16 (≈ 14.5 µM) | 32 (≈ 29.1 µM) | 32 (≈ 29.1 µM) | > 32 | > 32 | > 32
C/C=C1/NC(=O)[C@H](CCN)NC(=O)[C@H](CC(C)C)NC(=O)[C@H](CN)NC(=O)C[C@@H](CCCCCC(C)C)OC(=O)[C@H](CC(=O)O)NC(=O)[C@H](C(C)C)NC(=O)[C@@H](Cc2ccccc2)NC(=O)[C@H](CN)NC(=O)[C@H]([C@@H](C)O)NC1=O [Compound 5, Isopedopeptin E] ([Dap]L[Dab][X1]T[Dap][dF]VD; linker N-C via X3) | > 32 | 32 (≈ 28.7 µM) | 16 (≈ 14.3 µM) | > 32 | > 32 | > 32 | > 32
C/C=C1/NC(=O)[C@H](CCN)NC(=O)[C@H](CC(C)C)NC(=O)[C@H](CN)NC(=O)C[C@@H](CCCCCCCC(C)C)OC(=O)[C@H](CC(=O)O)NC(=O)[C@H](C(C)(C)O)NC(=O)[C@@H](Cc2ccccc2)NC(=O)[C@H](CN)NC(=O)[C@H]([C@@H](C)O)NC1=O [Compound 6, Isopedopeptin F] ([Dap]L[Dab][X1]T[Dap][dF][Val(3-OH)]D; linker N-C via X5) | 32 (≈ 27.6 µM) | 16 (≈ 13.8 µM) | 32 (≈ 27.6 µM) | 16 (≈ 13.8 µM) | > 32 | 32 (≈ 27.6 µM) | > 32
C/C=C1/NC(=O)[C@H](CCN)NC(=O)[C@H](CC(C)C)NC(=O)[C@H](CN)NC(=O)C[C@@H](CCCC=CCCC(C)C)OC(=O)[C@H](CC(=O)O)NC(=O)[C@H](C(C)C)NC(=O)[C@@H](Cc2ccccc2)NC(=O)[C@H](CN)NC(=O)[C@H]([C@@H](C)O)NC1=O [Compound 7, Isopedopeptin G] ([Dap]L[Dab][X1]T[Dap][dF]VD; linker N-C via X4) | 16 (≈ 14 µM) | 8 (≈ 7.01 µM) | 16 (≈ 14 µM) | 8 (≈ 7.01 µM) | > 32 | 16 (≈ 14 µM) | > 32
C/C=C1/NC(=O)[C@H](CCN)NC(=O)[C@H](CC(C)C)NC(=O)[C@H](CN)NC(=O)C[C@@H](CC=CCCCCC(C)C)OC(=O)[C@H](CC(=O)O)NC(=O)[C@H](C(C)C)NC(=O)[C@@H](Cc2ccccc2)NC(=O)[C@H](CN)NC(=O)[C@H]([C@@H](C)O)NC1=O [Compound 8, Isopedopeptin H] ([Dap]L[Dab][X1]T[Dap][dF]VD; linker N-C via X6) | 16 (≈ 14 µM) | 16 (≈ 14 µM) | 32 (≈ 28 µM) | 16 (≈ 14 µM) | > 32 | 16 (≈ 14 µM) | > 32
